Experimental data as given in patent US8754113B2, “Oxadiazole derivative having endothelial lipase inhibitory activity” (Shionogi & Co., Ltd., priority 2009, dated 2014).

Each compound was assayed against human endothelial lipase (EL) (Homo sapiens (Human), UniProt Q9Y5X9) (assay: Human endothelial lipase (EL) inhibitory activity using human HDL (NEFA release)). Details: human HDL 2 mg/ml substrate, 4-hour reaction at 37° C., NEFA readout; read-out: IC50 (50% inhibitory concentration), EL inhibitory activity.
Type: biochemical
Method: Evaluation Method of Human Endothelial Lipase (EL) Inhibitory Activity Using Human High-Density Lipoprotein (HDL)
After the present compound dissolved in DMSO was added to become 0.5% DMSO to the reaction buffer consisting of 20 mM tris hydrochloric acid (pH7.4), bovine serum albumin (0.5%), calcium chloride (4 mM), sodium chloride (150 mM) and human HDL (2 mg/ml), the EL enzyme was added (total volume was 20 μl).
After 4-hour reaction at 37° C., non-esterified fatty acid (NEFA) generated from HDL by EL was measured with a commercially available assay kit and the amount of NEFA was used as an index of enzyme activity.

human endothelial lipase (EL), sequence (Q9Y5X9 21-500): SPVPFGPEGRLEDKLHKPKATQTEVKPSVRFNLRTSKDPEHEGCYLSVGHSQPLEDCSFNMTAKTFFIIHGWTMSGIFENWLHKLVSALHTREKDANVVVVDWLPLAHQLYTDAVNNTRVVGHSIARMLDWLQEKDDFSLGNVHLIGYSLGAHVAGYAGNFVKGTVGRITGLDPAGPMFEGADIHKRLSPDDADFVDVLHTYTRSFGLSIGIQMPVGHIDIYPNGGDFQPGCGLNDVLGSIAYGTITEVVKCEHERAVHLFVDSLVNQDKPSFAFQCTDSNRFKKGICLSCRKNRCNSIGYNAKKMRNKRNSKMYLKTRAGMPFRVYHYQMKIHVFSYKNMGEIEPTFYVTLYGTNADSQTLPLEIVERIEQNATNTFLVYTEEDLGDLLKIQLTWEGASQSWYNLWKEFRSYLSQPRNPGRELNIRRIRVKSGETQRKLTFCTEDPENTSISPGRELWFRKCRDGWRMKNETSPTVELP

Compound | IC50 [nM]
Cc1ccc(-c2ccc3nc(Cc4nnc(CC(=O)NC5(C#N)CC5)o4)sc3c2F)s1 [Compound A-9] | 11
N#CC1(NC(=O)Cc2nnc(Cc3nc4ccc(-c5ccc(Cl)cc5)c(F)c4s3)o2)CC1 [Compound A-13] | 22
Cc1ccc(-c2ccc3nc(Cc4nnc(CC(=O)NC5(C#N)CC5)o4)sc3n2)s1 [Compound A-14] | 160
N#CC1(NC(=O)Cc2nnc(Cc3nc4ccc(-c5ccccc5)c(Cl)c4s3)o2)CC1 [Compound A-17] | 41
Cn1cc(-c2ccc3nc(Cc4nnc(CC(=O)NC5(C#N)CC5)o4)sc3n2)cn1 [Compound A-19] | 110
Cn1cc(-c2ccc3nc(Cc4nnc(CC(=O)NC5(C#N)CC5)o4)sc3c2Cl)cn1 [Compound A-21] | 65
COc1cc(-c2cnn(C)c2)cc2sc(Cc3nnc(CC(=O)NC4(C#N)CC4)o3)nc12 [Compound A-25] | 42
O=C(O)Cc1nnc(Cc2nc3ccc(-c4ccccc4)cc3s2)o1 [Compound I-1-2] | 120
N#CCNC(=O)Cc1nnc(Cc2nc3ccc(-c4ccccc4)cc3s2)o1 [Compound I-1-3] | 26
O=C(O)CCc1nnc(Cc2nc3ccc(-c4ccccc4)cc3s2)o1 [Compound I-1-9] | 260
CS(=O)(=O)NCc1nnc(Cc2nc3ccc(-c4ccccc4)cc3s2)o1 [Compound I-1-23] | 73
N#CCCc1nnc(Cc2nc3ccc(-c4ccccc4)cc3s2)o1 [Compound I-1-27] | 85
N#CCNC(=O)Cc1nnc(Cc2nc3cc(-c4ccccc4)ccc3o2)o1 [Compound I-1-43] | 390
O=C(Cc1nnc(Cc2nc3ccc(-c4ccccc4)cc3s2)o1)Nc1ccccc1 [Compound I-1-83] | 5
N#CCNC(=O)Cc1nnc(Cc2nc3c(-c4ccccc4)cccc3s2)o1 [Compound I-2-197] | 12
Cn1ccc(-c2ccc3nc(Cc4nnc(CC(=O)NC5(C#N)CC5)o4)sc3c2)n1 [Compound I-2-198] | 15
N#CCNC(=O)Cc1nnc(Cc2ccc3cc(-c4ccccc4)ccc3n2)o1 [Compound I-2-204] | 190
N#CCNC(=O)Cc1nnc(Cc2cnc3cc(-c4ccccc4)ccc3n2)o1 [Compound I-2-215] | 2500
Cn1cc(-c2ccc3sc(Cc4nnc(CC(=O)NC5(C#N)CC5)o4)nc3c2)cn1 [Compound I-3-4] | 4
N#CCNC(=O)Cc1nnc(C(F)(F)c2nc3ccc(-c4ccccc4)cc3s2)o1 [Compound I-3-21] | 250
N#CC1(NC(=O)Cc2nnc(Cc3nc4ccc(Cc5ccc(F)cc5)cc4s3)o2)CC1 [Compound I-3-41] | 14
N#CC1(NC(=O)Cc2nnc(Cc3nc4ccc(-c5ncc(F)cn5)cc4s3)o2)CC1 [Compound I-3-112] | 44
N#CC1(NC(=O)Cc2nnc(Cc3nc4ccc(-c5ccc(Cl)cn5)cc4s3)o2)CC1 [Compound I-3-146] | 27

Next, values leading:

IC50 [nM] | Compound
8 | N#CC1(NC(=O)Cc2nnc(Cc3nc4cnc(-c5ccccc5)cc4s3)o2)CC1 [Compound A-10]
19 | O=C(NCCc1nnc(Cc2nc3ccc(-c4ccccc4)cc3s2)o1)C1CC1 [Compound I-1-7]
83 | O=C(Cc1nnc(Cc2nc3ccc(-c4ccccc4)cc3s2)o1)NCCO [Compound I-1-31]
52 | O=C(Cc1nnc(Cc2nc3ccc(-c4ccccc4)cc3s2)o1)N1CCOCC1 [Compound I-1-82]
6 | NS(=O)(=O)NCc1nnc(Cc2nc3ccc(-c4ccccc4)cc3s2)o1 [Compound I-1-85]
36 | N#CCNC(=O)Cc1nnc(Cc2nc3c(Br)cccc3s2)o1 [Compound I-2-196]
23000 | N#CCNC(=O)Cc1nnc(Cc2ccc(-c3ccccc3)cn2)o1 [Compound I-2-216]
11 | N#CC1(NC(=O)Cc2nnc(Cc3nc4ccc(-c5ccccn5)cc4s3)o2)CC1 [Compound I-3-1]
52 | O=C(Cc1nnc(Cc2nc3ccc(-c4ccc(F)cc4)cc3s2)o1)NC1(CO)CC1 [Compound I-3-6]
9 | N#CC1(NC(=O)Cc2nnc(Cc3nc4c(-c5ccccc5)cccc4s3)o2)CC1 [Compound I-3-11]
78 | O=C(Cc1nnc(Cc2nc3c(-c4ccccc4)cccc3s2)o1)NC1(CO)CC1 [Compound I-3-12]
400 | O=C(Cc1nnc(Cc2nc3ccc(-c4ccccc4)cc3s2)o1)N1CC(O)C1 [Compound I-3-23]
46 | O=C(Cc1nnc(Cc2nc3ccc(-c4ccccc4)cc3s2)o1)NC1COC1 [Compound I-3-30]
2 | CC(C#N)NC(=O)Cc1nnc(Cc2nc3ccc(-c4ccccc4)cc3s2)o1 (stereo not drawn) [Compound I-3-37]
8 | N#CC1(NC(=O)Cc2nnc(Cc3nc4ccc(C5=CCOCC5)cc4s3)o2)CC1 [Compound I-3-48]
4 | N#CC1(NC(=O)Cc2nnc(Cc3nc4ccc(-c5ccc(Cl)s5)cc4s3)o2)CC1 [Compound I-3-56]
28 | N#CC1(NC(=O)Cc2nnc(Cc3nc4ccc(-c5cc6ccccc6s5)cc4s3)o2)CC1 [Compound I-3-93]
69 | N#CC1(NC(=O)Cc2nnc(Cc3nc4ccc(-c5ncccn5)cc4s3)o2)CC1 [Compound I-3-145]
9 | N#CC1(NC(=O)Cc2nnc(Cc3nc4ccc(-c5ccc(F)s5)cc4s3)o2)CC1 [Compound I-3-163]
